The results in this text go back to patent publication US11584744B2 (UNIVERSITY OF WASHINGTON, priority 2017, dated 2023).

The subject of test [1] is S. aureus MRSA (ATCC 33591). Description: MIC susceptibility testing. As to conditions: Staphylococcus aureus, MRSA ATCC33591; read-out: (G) MRSA (ATCC33591) MIC. The class given is cell-based, Staphylococcus aureus. The procedure, abridged:
(§1)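 CLSI broth microdilution in triplicate, 5×10^5 CFU/mL final, ≤0.5% DMSO; MHB for S. aureus, CA-MHB for E. coli and E. faecium, CA-MHB plus 3% laked horse blood for S. pyogenes (5% CO2).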

Test [2] relates to S. aureus MSSA (ATCC 29213). The test is described as follows: MIC susceptibility testing. Conditions: S. aureus ATCC 29213; for MIC: Staphylococcus aureus, read-out: (F) S. aureus (ATCC 29213) MIC. The class given is cell-based, Staphylococcus aureus.
For test [3], the target named is recombinant S. aureus MetRS enzyme (Staphylococcus aureus, UniProt A0A0H2XID2). The test is described as follows: Inhibition of SaMetRS, ATP depletion assay. The test is classed as biochemical. Conditions: read-out: (B) MetRS (S. aureus) IC50. Here is the method: Production of recombinant S. aureus MetRSs. The SaMetRS gene (UniProtKB—A0A0H2XID2) was PCR amplified (Sense 5′-[…]-3′ (SEQ ID NO: 1) and Antisense 5′-[…]-3′ (SEQ ID NO:2)) from genomic DNA isolated from S. aureus (ATCC 29213) cultures. The PCR product was then cloned into the AVA0421 plasmid and sequence verified. The expression of recombinant protein was performed as previously described. The N-terminal 6-His fusion proteins were purified by nickel affinity chromatography followed by size exclusion gel chromatography (Superdex 75 26/60; GE Biosciences, Piscataway, N.J.).
Enzyme assays. Inhibition of SaMetRS was measured using the ATP depletion assay as previously described with some modifications. Compounds were pre-incubated for 15 minutes at room temperature in a 96-well plate with 400 μg/mL bulk E. coli tRNA, 25 nM SaMetRS, 0.1 U/mL pyrophosphatase, 0.2 mM spermine, 0.1 mg/mL bovine serum albumin, 2.5 mM dithiothreitol, 25 mM HEPES-KOH pH 7.9, 10 mM MgCl2, 50 mM KCl, and 2% DMSO. Reagents were purchased from Sigma-Aldrich or Roche. The reaction was started with the addition of 150 nM ATP and 20 μM L-methionine and after 120 minute incubation was stopped by the addition of an equal volume (50 μL) of Kinase-Glo® (Promega). Percent inhibition=100×(test compound−AVG low control)/(AVG high control−AVG low control) where the low control is all reagents except the compound and the high control is all reagents except the compounds and L-methionine. IC50 values were calculated by non-linear regression, sigmoidal-dose response, in Prism 3.0.

A further test deals with T1, MetRS (T. brucei) (Trypanosoma brucei brucei, UniProt Q38C91).
T1 sequence (Q38C91 1-773): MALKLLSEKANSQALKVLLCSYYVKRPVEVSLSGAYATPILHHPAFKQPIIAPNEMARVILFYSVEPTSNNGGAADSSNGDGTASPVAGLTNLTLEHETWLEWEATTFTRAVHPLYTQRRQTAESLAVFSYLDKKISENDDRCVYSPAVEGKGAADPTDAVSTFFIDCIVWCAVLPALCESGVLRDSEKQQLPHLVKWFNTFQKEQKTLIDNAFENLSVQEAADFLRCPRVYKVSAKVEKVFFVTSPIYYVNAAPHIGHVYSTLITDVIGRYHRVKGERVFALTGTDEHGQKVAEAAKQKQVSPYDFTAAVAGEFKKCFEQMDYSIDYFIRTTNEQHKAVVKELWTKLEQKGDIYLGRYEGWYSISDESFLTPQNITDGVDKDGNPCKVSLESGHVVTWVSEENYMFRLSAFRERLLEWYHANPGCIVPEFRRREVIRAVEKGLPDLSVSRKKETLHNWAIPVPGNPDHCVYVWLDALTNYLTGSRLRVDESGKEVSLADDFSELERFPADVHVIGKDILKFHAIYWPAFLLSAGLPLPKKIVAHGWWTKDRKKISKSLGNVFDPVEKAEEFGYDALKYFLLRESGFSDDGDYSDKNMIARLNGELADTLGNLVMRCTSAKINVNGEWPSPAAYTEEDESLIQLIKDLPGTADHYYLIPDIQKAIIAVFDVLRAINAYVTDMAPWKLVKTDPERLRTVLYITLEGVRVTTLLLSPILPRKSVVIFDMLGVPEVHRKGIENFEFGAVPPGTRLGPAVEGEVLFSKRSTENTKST
The test is described as follows: MetRS (T. brucei) enzyme inhibition. The class given is biochemical.

The subject of a further test is T. cruzi. Description: T. cruzi growth inhibition. The test is classed as cell-based, Trypanosoma cruzi. As to conditions: read-out: (E) T. cruzi EC50.
Another test deals with MetRS (C. parvum) (Cryptosporidium parvum, UniProt Q5CVN0). Description: MetRS (C. parvum) enzyme inhibition. The class given is biochemical. As to conditions: read-out: (C) MetRS (C. parvum) IC50.
Another test concerns T. brucei. The test is described as follows: T. brucei growth inhibition. The test is classed as cell-based, Trypanosoma brucei. Conditions: read-out: (D) T. brucei EC50.
For another test, the system named is C. parvum. Description: C. parvum growth inhibition. As to conditions: Cryptosporidium parvum; read-out: (J) C. parvum EC50. The test is classed as cell-based, Cryptosporidium parvum.
Test [4] has as its system E. faecium VRE (ATCC 51559). The test is described as follows: MIC susceptibility testing. As to conditions: E. faecium ATCC 51559; for MIC: Enterococcus faecium, read-out: (I) E. faecium (ATCC 51559) MIC. The test is classed as cell-based, Enterococcus faecium. A digest of the protocol:
as §1

A word on the MIC: it is the lowest concentration found to suppress growth. For orientation: IC50 means the concentration at which inhibition is half-maximal. A word on the EC50: it is the midpoint of the concentration-response curve.

SMILES strings stand for the structures. Converted amounts (≈) assume the structure as drawn. Where two headings read alike, the source gives them in different places.

MetRS (C. parvum), sequence (Q5CVN0 entry or part of it): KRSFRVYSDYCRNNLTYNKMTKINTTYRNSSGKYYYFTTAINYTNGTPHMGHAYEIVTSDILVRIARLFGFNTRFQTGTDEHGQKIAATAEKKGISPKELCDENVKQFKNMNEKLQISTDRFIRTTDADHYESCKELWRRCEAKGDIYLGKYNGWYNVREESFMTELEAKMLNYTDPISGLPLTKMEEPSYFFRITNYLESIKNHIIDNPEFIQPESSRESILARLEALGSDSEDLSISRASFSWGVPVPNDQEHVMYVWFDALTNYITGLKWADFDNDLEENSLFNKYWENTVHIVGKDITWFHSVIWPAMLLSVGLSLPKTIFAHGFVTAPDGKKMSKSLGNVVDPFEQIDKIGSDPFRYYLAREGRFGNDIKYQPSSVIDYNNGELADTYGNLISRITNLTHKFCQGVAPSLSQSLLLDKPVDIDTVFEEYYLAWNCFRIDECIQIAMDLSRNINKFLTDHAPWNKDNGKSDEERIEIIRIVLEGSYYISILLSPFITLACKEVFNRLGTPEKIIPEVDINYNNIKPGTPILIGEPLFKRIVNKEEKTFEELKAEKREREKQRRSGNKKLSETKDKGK
recombinant S. aureus MetRS enzyme, sequence (A0A0H2XID2 2-657): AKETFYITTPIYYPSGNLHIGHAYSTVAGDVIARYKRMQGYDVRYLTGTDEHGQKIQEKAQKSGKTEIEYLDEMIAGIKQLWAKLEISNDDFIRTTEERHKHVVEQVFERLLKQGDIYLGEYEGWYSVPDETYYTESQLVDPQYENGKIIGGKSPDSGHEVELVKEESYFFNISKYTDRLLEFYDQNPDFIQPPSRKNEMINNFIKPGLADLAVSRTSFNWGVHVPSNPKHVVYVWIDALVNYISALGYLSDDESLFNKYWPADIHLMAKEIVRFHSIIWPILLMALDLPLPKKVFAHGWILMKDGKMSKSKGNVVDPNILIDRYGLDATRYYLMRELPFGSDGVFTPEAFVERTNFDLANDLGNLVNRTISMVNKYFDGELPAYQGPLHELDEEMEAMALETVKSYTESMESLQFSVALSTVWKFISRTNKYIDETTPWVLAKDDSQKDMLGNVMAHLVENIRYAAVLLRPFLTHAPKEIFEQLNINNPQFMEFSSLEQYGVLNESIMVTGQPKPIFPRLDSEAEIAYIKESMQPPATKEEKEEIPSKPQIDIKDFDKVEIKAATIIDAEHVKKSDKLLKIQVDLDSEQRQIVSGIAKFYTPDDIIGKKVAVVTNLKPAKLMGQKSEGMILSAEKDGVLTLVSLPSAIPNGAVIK

Turning to `CCCn1c(Cc2ccc(Cl)cc2Cl)cn(Cc2nc3ccc(Cl)nc3[nH]2)c1=O` [Compound 2079, 1-({5-chloro-1H-imidazo[4,5-b]pyridin-2-yl}methyl)-4-[(2,4-dichlorophenyl)-methyl]-3-propyl-2,3-dihydro-1H-imidazol-2-one], the MIC was above 2.5 µg/mL in test [1] and 0.044 µg/mL (≈ 0.0976 µM) in test [2]. In addition, the “(F) S. aureus (ATCC 29213) MIC” value in test [2] worked out at 0.0391 µg/mL. Besides, the IC50 in [3] is below 25 nM; against MetRS (T. brucei), below 40 nM; on MetRS (C. parvum), below 40 nM. Further, the EC50 in the test on T. cruzi (Trypanosoma cruzi) is 26 nM; with T. cruzi, 22.5 nM; in the test on T. brucei (Trypanosoma brucei), below 0.91 nM; in the test with T. brucei it was 1.79 nM.
For `O=c1n(Cc2nc3ccc(F)nc3[nH]2)cc(Cc2ccc(Cl)cc2Cl)n1CC1CCOCC1` [Compound 2087, 4-[(2,4-dichlorophenyl)methyl]-1-({5-fluoro-1H-imidazo[4,5-b]pyridin-2-yl}methyl)-3-[(oxan-4-yl)methyl]-2,3-dihydro-1H-imidazol-2-one], the values for the MIC in test [1] and in test [2] were 1.67 µg/mL (≈ 3.41 µM) and 0.254 µg/mL (≈ 0.518 µM), respectively. Besides, the IC50 was below 25 nM in [3], below 40 nM at MetRS (T. brucei) and below 40 nM on MetRS (C. parvum). Besides, in the test with T. cruzi (Trypanosoma cruzi), the EC50 came to 359 nM.
`O=c1n(Cc2nc3nc(F)ccc3[nH]2)cc(Cc2ccc(Cl)cc2Cl)n1C1CCOCC1` [Compound 2088, 4-[(2,4-dichlorophenyl)methyl]-1-({5-fluoro-1H-imidazo[4,5-b]pyridin-2-yl}methyl)-3-(oxan-4-yl)-2,3-dihydro-1H-imidazol-2-one]: the MIC in test [1] was 1.5 µg/mL (≈ 3.15 µM); in [2] it was 0.424 µg/mL (≈ 0.89 µM). Also, the IC50 in [3] was below 25 nM; against MetRS (T. brucei), below 40 nM; on MetRS (C. parvum), below 40 nM. Further, the EC50 in the test on T. cruzi (Trypanosoma cruzi) stood at 263 nM.
As for `CS(=O)(=O)c1nc(Cc2ccc(Cl)cc2Cl)cn1Cc1nc2ccc(F)nc2[nH]1` [Compound 2105, 4-[(2,4-dichlorophenyl)methyl]-1-({5-fluoro-1H-imidazo[4,5-b]pyridin-2-yl}methyl)-2-methanesulfonyl-1H-imidazole], the MIC in test [2] came out at 2.15 µg/mL (≈ 4.73 µM). In addition, the IC50 is below 25 nM in [3], below 40 nM at MetRS (T. brucei) and 109 nM at MetRS (C. parvum). The EC50 in the test with T. cruzi (Trypanosoma cruzi) was 867 nM; in the test with T. brucei (Trypanosoma brucei), 71.5 nM.
For the compound `CS(=O)(=O)c1nc(Cc2ccc(Cl)cc2Cl)cn1Cc1nc2nc(Cl)ccc2[nH]1` [Compound 2111, 1-({5-chloro-1H-imidazo[4,5-b]pyridin-2-yl}methyl)-4-[(2,4-dichlorophenyl)methyl]-2-methanesulfonyl-1H-imidazole], in test [2], the MIC was 1.25 µg/mL (≈ 2.66 µM). Also, the IC50 in test [3] was below 25 nM; against MetRS (T. brucei), below 40 nM; at MetRS (C. parvum) it was 146 nM. For the same compound, the values for the concentration giving a half-maximal response (EC50) with T. cruzi (Trypanosoma cruzi) and in the test with T. brucei (Trypanosoma brucei) were 445 nM and 54.6 nM, respectively.
Turning to `COc1cc(-c2cccc3nc(Cc4nc5nc(F)ccc5[nH]4)cn23)c(Cl)cc1Cl` [Compound 2129, 5-(2,4-dichloro-5-methoxyphenyl)-2-({5-fluoro-1H-imidazo[4,5-b]pyridin-2-yl}methyl)imidazo[1,2-a]pyridine], the figures for the IC50 (in [3]; against MetRS (T. brucei); on MetRS (C. parvum)) were below 25 nM, below 40 nM and below 40 nM, respectively. Also, the EC50 with T. cruzi (Trypanosoma cruzi) came out at 102 nM; with T. cruzi, 82 nM.
Take `COc1cc(Cl)c(-c2cccc3nc(Cc4nc5nc(F)ccc5[nH]4)cn23)cc1OC` [Compound 2145, 5-(2-chloro-4,5-dimethoxyphenyl)-2-({5-fluoro-1H-imidazo[4,5-b]pyridin-2-yl}methyl)imidazo[1,2-a]pyridine]: the EC50 with C. parvum is above 2000 nM; with T. cruzi (Trypanosoma cruzi), 66.7 nM; with T. cruzi, 129 nM. Also, the concentration for half-maximal inhibition (IC50) in [3] was below 25 nM; on MetRS (T. brucei), below 40 nM; at MetRS (C. parvum), 74.7 nM.
`CC(C)(O)Cn1c(Cc2ccc(Cl)cc2Cl)cn(Cc2nc3ccc(Cl)nc3[nH]2)c1=O` [Compound 2211, 1-((5-chloro-3H-imidazo[4,5-b]pyridin-2-yl)methyl)-4-(2,4-dichlorobenzyl)-3-(2-hydroxy-2-methylpropyl)-1,3-dihydro-2H-imidazol-2-one]: the MIC in test [1] is 0.489 µg/mL (≈ 1.02 µM); in test [2], 0.493 µg/mL (≈ 1.03 µM); in [4], 0.389 µg/mL (≈ 0.809 µM). For the same compound, the “(F) S. aureus (ATCC 29213) MIC” value in test [2] came to 0.590 µg/mL. The concentration giving a half-maximal response (EC50) was 1170 nM in the test on C. parvum; 21.7 nM in the test with T. cruzi (Trypanosoma cruzi); 22.1 nM in the test on T. cruzi; below 0.91 nM with T. brucei (Trypanosoma brucei); 1.16 nM in the test on T. brucei. Moreover, the IC50 against MetRS (T. brucei) is below 40 nM; on MetRS (C. parvum) it was 50.2 nM. Besides, the “(I) E. faecium (ATCC 51559) MIC” value in test [4] was found to be 0.281 µg/mL.
On to `O=c1n(Cc2nc3ccc(Cl)nc3[nH]2)cc(Cc2ccc(Cl)cc2Cl)n1CCO` [Compound 2213, 1-({5-chloro-1H-imidazo[4,5-b]pyridin-2-yl}methyl)-4-[(2,4-dichlorophenyl)-methyl]-3-(2-hydroxyethyl)-2,3-dihydro-1H-imidazol-2-one], for which the results for the minimum inhibitory concentration (MIC) in test [1], in [2] and in test [4] were 0.52 µg/mL (≈ 1.15 µM), 0.422 µg/mL (≈ 0.932 µM) and 0.272 µg/mL (≈ 0.601 µM), respectively. In addition, in test [2], the “(F) S. aureus (ATCC 29213) MIC” value came to 0.574 µg/mL. Besides, the EC50 with C. parvum stood at 1910 nM; in the test with T. cruzi (Trypanosoma cruzi), 63.4 nM; with T. cruzi, 71.3 nM; in the test with T. brucei (Trypanosoma brucei), 2.12 nM. The IC50 at MetRS (T. brucei) and at MetRS (C. parvum) was below 40 nM throughout.
As to `CCOC(=O)Cn1c(C(=O)c2ccc(Cl)cc2Cl)cn(Cc2nc3ccc(Cl)nc3[nH]2)c1=O` [Compound 2215, ethyl 2-[3-({5-chloro-1H-imidazo[4,5-b]pyridin-2-yl}methyl)-5-(2,4-dichlorobenzoyl)-2-oxo-2,3-dihydro-1H-imidazol-1-yl]acetate], the values for the MIC in [1], in test [2] and in test [4] were 0.26 µg/mL (≈ 0.511 µM), 0.298 µg/mL (≈ 0.586 µM) and 0.272 µg/mL (≈ 0.535 µM), respectively. The EC50 is above 2000 nM with C. parvum; 14.8 nM with T. cruzi (Trypanosoma cruzi); 25.4 nM with T. cruzi; below 0.91 nM with T. brucei (Trypanosoma brucei); 0.46 nM in the test with T. brucei. In addition, the IC50 on MetRS (T. brucei) and on MetRS (C. parvum) was below 40 nM each time.
As for `COc1ccc(-c2cccc3c2CN(Cc2nc4nc(Cl)ccc4[nH]2)C3)c(Cl)c1` [Compound 2224, 5-chlor0-2-((4-(2-chloro-4-methoxyphenyl)isoindolin-2-yl)methyl)-1H-imidazo[4,5-b]pyridine], the MIC in test [1] turned out to be 1.17 µg/mL (≈ 2.75 µM); in test [2] it was 1.07 µg/mL (≈ 2.52 µM); in test [4], 0.995 µg/mL (≈ 2.34 µM). For the same compound, in test [2], the “(F) S. aureus (ATCC 29213) MIC” value came to 1.37 µg/mL. Also, the EC50 with C. parvum was above 2000 nM; with T. cruzi (Trypanosoma cruzi), 174 nM; in the test on T. brucei (Trypanosoma brucei) it was 23.7 nM. The IC50 against MetRS (T. brucei) was 52 nM; on MetRS (C. parvum) it was below 40 nM.
